Results from US20250129051A1, “PARP1 INHIBITORS AND USES THEREOF” (Gilead Sciences, Inc., priority 2023, published 2025).

Columns and labels:
Type in all cases: cell-based
DLD-1 BRCA2 (−/−) cells = assay: Cell growth inhibition assay (CellTiter-Glo), DLD-1 BRCA2 (−/−); details: Homo sapiens, 168 h, 7 days, CellTiter Glo 2.0
Text: (§1) The objective of this study was to evaluate the effect of a compound disclosed herein on cell proliferation through the cell viability assay in DLD-1 BRCA2 (−/−) and parental isogenic pair and MDA-MB-436 (mutated BRCA1) cell lines. The CellTiter-Glo (CTG) based cell viability assay was designed to determine the number of viable cells in the culture because of compound effect, by quantifying adenosine triphosphate (ATP), which indicates the presence of metabolically active cells.
(§2) DLD-1 BRCA2 (−/−) and parental isogenic pair were cultured in RPMI 1640 supplemented with 10% fetal bovine serum (FBS), and MDA-MB-436 cells were cultured in Dulbecco's Modified Eagle Medium (DMEM) supplemented with 10% FBS. Both were cultured at 37° C. with 5% CO2. Compounds were distributed to the 384 well plate (Corning, 3764) using Echo acoustic liquid handler to form a 1:3 serially diluted final concentration with top dose of 10 or 30 μM. The cells were seeded into the plate in the density of 50 cells/well (DLD-1 parental), 200 cells/well (DLD-1 BRCA2−/−), or 500 cells/well (MDA-MB-436). After a short spin, the cells were cultured in a well moisturized incubator at 37° C. with 5% CO2 for 7 days without disturbance. The cell viability was measured by CellTiter Glo 2.0 assay kit (Promega, G9243), and growth inhibition rate was calculated and plotted against final compound concentration, and the data were fitted in Xfit to generate IC50.

DLD-1 parental cells = assay: Cell growth inhibition assay (CellTiter-Glo), DLD-1 parental; details: Homo sapiens, 168 h, 7 days, CellTiter Glo 2.0
Text: as §1, §2

[1] = tested on: MDA-MB-436 (mutated BRCA1) cells; assay: Cell growth inhibition assay (CellTiter-Glo), MDA-MB-436; details: Homo sapiens, 168 h; MDA-MB-436 cells, 7 days, CellTiter Glo 2.0
Text: as §1, §2

IC50 (DLD-1 BRCA2 (−/−) cells) [nM]	IC50 [1] [nM]	SMILES	IC50 (DLD-1 parental cells) [nM]
28	8.9	Cc1nc2ccc(CN3C[C@H](Oc4ccc(C(=O)NC5CC5)nc4F)[C@H]3C)c(F)c2[nH]c1=O [Compound 6, N-cyclopropyl-6-fluoro-5-(((2R,3S)-1-((5-fluoro-2-methyl-3-oxo-3,4-dihydroquinoxalin-6-yl)methyl)-2-methylazetidin-3-yl)oxy) picolinamide]	> 10000
> 1000	> 1000	Cc1nc2ccc(CN3C[C@H](Oc4ccc(C#N)nc4F)[C@H]3C)c(F)c2[nH]c1=O [Compound 7, 6-fluoro-5-(((2R,3S)-1-((5-fluoro-2-methyl-3-oxo-3,4-dihydroquinoxalin-6-yl)methyl)-2-methylazetidin-3-yl)oxy) picolinonitrile]	> 10000
67	23	CNC(=O)c1ccc(O[C@H]2CN(Cc3ccc4nc(C)c(=O)[nH]c4c3F)[C@@H]2C)c(F)n1 [Compound 5, 6-fluoro-5-(((2R,3S)-1-((5-fluoro-2-methyl-3-oxo-3,4-dihydroquinoxalin-6-yl)methyl)-2-methylazetidin-3-yl)oxy)-N-methylpicolinamide]	> 10000
